According to PubChem BioAssay AID1845206 (Molecular Pharmacology Branch, DTP, NCI, 2023):
The source made the active and inactive calls. The calls were made as follows: active = viability on the fitted dose curve at most 10% of control; inactive = the rest.

System: NCI-H1618 multicellular tumor spheroid viability
Assay: Anticancer human tumor NCI-H1618 cell line growth inhibition;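 also: spheroids exposed to agents for 7 days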
Details: for IC50: curve of first compound; for viability, T/C: stronger effect = lower value
Method in brief: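 Complex spheroids of malignant cells with endothelial cells and mesenchymal stem cells; agents alone or combined, from near clinical Cmax (or 10 microM if unknown) down in half-log steps, 0.25% DMSO final.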

[1] = second compound 1 µM, first compound 0.0949 µM
[2] = second compound 1 µM, first compound 0.3 µM
[3] = second compound 1 µM, first compound 0.949 µM
[4] = second compound 1 µM, first compound 3 µM
[5] = second compound 3.16 µM, first compound 0.0949 µM
[6] = second compound 3.16 µM, first compound 0.3 µM
[7] = second compound 3.16 µM, first compound 0.949 µM
[8] = second compound 3.16 µM, first compound 3 µM
[9] = second compound 10 µM, first compound 0.0949 µM
[10] = second compound 10 µM, first compound 0.3 µM
[11] = second compound 10 µM, first compound 0.949 µM
[12] = second compound 10 µM, first compound 3 µM
[13] = second compound 31.6 µM, first compound 0.0949 µM
[14] = second compound 31.6 µM, first compound 0.3 µM
[15] = second compound 31.6 µM, first compound 0.949 µM
[16] = second compound 31.6 µM, first compound 3 µM
[17] = second compound 100 µM, first compound 0.0949 µM
[18] = second compound 100 µM, first compound 0.3 µM
[19] = second compound 100 µM, first compound 0.949 µM
[20] = second compound 100 µM, first compound 3 µM

For `CNCc1ccc(-c2cc(-c3nc(-c4ccc(S(=O)(=O)C(C)C)cc4)cnc3N)on2)cc1` + COc1cc2c(cc1O)CCNC21CSC2c3c(OC(C)=O)c(C)c4c(c3C(COC1=O)N1C(O)C3Cc5cc(C)c(OC)c(O)c5C(C21)N3C)OCO4, the IC50 (second compound 30 pM) was 224 nM, the IC50 (second compound 94.9 pM) was 130 nM and the IC50 (second compound 0.0003 µM) was less than 9.49 nM. It also gave an IC50 (second compound 0.000949 µM) of less than 9.49 nM, an IC50 (second compound 0.003 µM) of less than 9.49 nM and a viability, T/C (second compound 30 pM, first compound 0.00949 µM) of 103%. The viability, T/C (second compound 30 pM, first compound 0.03 µM) was 100%, the viability, T/C (second compound 30 pM, first compound 0.0949 µM) was 110% and the viability, T/C (second compound 30 pM, first compound 0.3 µM) was 31.5%. For the same compound, the viability, T/C (second compound 30 pM, first compound 0.949 µM) was 5.25%, the viability, T/C (second compound 30 pM, first compound 3 µM) was 3.91% and the viability, T/C (second compound 94.9 pM, first compound 0.00949 µM) was 98.5%. For the same compound, the viability, T/C (second compound 94.9 pM, first compound 0.03 µM) was 93.6%, the viability, T/C (second compound 94.9 pM, first compound 0.0949 µM) was 59.5% and the viability, T/C (second compound 94.9 pM, first compound 0.3 µM) was 22.3%. For the same compound, the viability, T/C (second compound 94.9 pM, first compound 0.949 µM) was 2.88%, the viability, T/C (second compound 94.9 pM, first compound 3 µM) was 2.64% and the viability, T/C (second compound 0.0003 µM, first compound 0.00949 µM) was 11.2%. It also gave a viability, T/C (second compound 0.0003 µM, first compound 0.03 µM) of 17.8%, a viability, T/C (second compound 0.0003 µM, first compound 0.0949 µM) of 58.8% and a viability, T/C (second compound 0.0003 µM, first compound 0.3 µM) of 12.6%. For the same compound, the viability, T/C (second compound 0.0003 µM, first compound 0.949 µM) was 2.49%, the viability, T/C (second compound 0.0003 µM, first compound 3 µM) was 4.13% and the viability, T/C (second compound 0.000949 µM, first compound 0.00949 µM) was 3.91%. It also gave a viability, T/C (second compound 0.000949 µM, first compound 0.03 µM) of 15.3%, a viability, T/C (second compound 0.000949 µM, first compound 0.0949 µM) of 6.24% and a viability, T/C (second compound 0.000949 µM, first compound 0.3 µM) of 3.07%. It also gave a viability, T/C (second compound 0.000949 µM, first compound 0.949 µM) of 3.69%, a viability, T/C (second compound 0.000949 µM, first compound 3 µM) of 2.71% and a viability, T/C (second compound 0.003 µM, first compound 0.00949 µM) of 3.93%. The viability, T/C (second compound 0.003 µM, first compound 0.03 µM) was 6.21%, the viability, T/C (second compound 0.003 µM, first compound 0.0949 µM) was 4.41% and the viability, T/C (second compound 0.003 µM, first compound 0.3 µM) was 3.43%. It also gave a viability, T/C (second compound 0.003 µM, first compound 0.949 µM) of 2.55% and a viability, T/C (second compound 0.003 µM, first compound 3 µM) of 0.78%.
For `CC1COCCN1c1cc(-c2ccnn2C)c2ccnc(-c3ccn[nH]3)c2n1` (stereo not given) + CC[C@@]1(O)C(=O)OCc2c1cc1n(c2=O)Cc2cc3c(CN(C)C)c(O)ccc3nc2-1, the IC50 (second compound 0.003 µM) was less than 31.6 nM, the IC50 (second compound 0.00949 µM) was less than 31.6 nM and the IC50 (second compound 0.03 µM) was less than 31.6 nM. The IC50 (second compound 0.0949 µM) was less than 31.6 nM, the IC50 (second compound 0.3 µM) was less than 31.6 nM and the viability, T/C (second compound 0.003 µM, first compound 0.0316 µM) was 29.3%. The viability, T/C (second compound 0.003 µM, first compound 0.1 µM) was 15.1%, the viability, T/C (second compound 0.003 µM, first compound 0.316 µM) was 7% and the viability, T/C (second compound 0.003 µM, first compound 1 µM) was 2.06%. The viability, T/C (second compound 0.003 µM, first compound 3.16 µM) was 2.27%, the viability, T/C (second compound 0.003 µM, first compound 10 µM) was 0.99% and the viability, T/C (second compound 0.00949 µM, first compound 0.0316 µM) was 7.33%. The viability, T/C (second compound 0.00949 µM, first compound 0.1 µM) was 4.63%, the viability, T/C (second compound 0.00949 µM, first compound 0.316 µM) was 4.22% and the viability, T/C (second compound 0.00949 µM, first compound 1 µM) was 2.35%. The viability, T/C (second compound 0.00949 µM, first compound 3.16 µM) was 2.23%, the viability, T/C (second compound 0.00949 µM, first compound 10 µM) was 1.12% and the viability, T/C (second compound 0.03 µM, first compound 0.0316 µM) was 2.57%. For the same compound, the viability, T/C (second compound 0.03 µM, first compound 0.1 µM) was 3.94%, the viability, T/C (second compound 0.03 µM, first compound 0.316 µM) was 3.52% and the viability, T/C (second compound 0.03 µM, first compound 1 µM) was 1.99%. For the same compound, the viability, T/C (second compound 0.03 µM, first compound 3.16 µM) was 1.19%, the viability, T/C (second compound 0.03 µM, first compound 10 µM) was 0.71% and the viability, T/C (second compound 0.0949 µM, first compound 0.0316 µM) was 3.01%. It also gave a viability, T/C (second compound 0.0949 µM, first compound 0.1 µM) of 2.44%, a viability, T/C (second compound 0.0949 µM, first compound 0.316 µM) of 5% and a viability, T/C (second compound 0.0949 µM, first compound 1 µM) of 2.35%. It also gave a viability, T/C (second compound 0.0949 µM, first compound 3.16 µM) of 2.1%, a viability, T/C (second compound 0.0949 µM, first compound 10 µM) of 0.81% and a viability, T/C (second compound 0.3 µM, first compound 0.0316 µM) of 1.79%. It also gave a viability, T/C (second compound 0.3 µM, first compound 0.1 µM) of 1.4%, a viability, T/C (second compound 0.3 µM, first compound 0.316 µM) of 1.52% and a viability, T/C (second compound 0.3 µM, first compound 1 µM) of 1.45%. For the same compound, the viability, T/C (second compound 0.3 µM, first compound 3.16 µM) was 0.77% and the viability, T/C (second compound 0.3 µM, first compound 10 µM) was 0.65%.
In the case of `O=C(c1cc(Cc2n[nH]c(=O)c3ccccc23)ccc1F)N1CCN(C(=O)C2CC2)CC1` + Cn1nnc2c(C(N)=O)ncn2c1=O, the IC50 (second compound 1 µM) is reported as 179 nM, the IC50 (second compound 3.16 µM) is reported as less than 94.9 nM and the IC50 (second compound 10 µM) is reported as less than 94.9 nM. For the same compound, the IC50 (second compound 31.6 µM) was less than 94.9 nM, the IC50 (second compound 100 µM) was less than 94.9 nM and the viability, T/C [1] was 77.8%. For the same compound, the viability, T/C [2] was 22.5%, the viability, T/C [3] was 23.6% and the viability, T/C [4] was 20.8%. For the same compound, the viability, T/C (second compound 1 µM, first compound 9.49 µM) was 2.93%, the viability, T/C (second compound 1 µM, first compound 30 µM) was 5.71% and the viability, T/C [5] was 19.4%. The viability, T/C [6] was 25.9%, the viability, T/C [7] was 23.3% and the viability, T/C [8] was 3.5%. The viability, T/C (second compound 3.16 µM, first compound 9.49 µM) was 24.2%, the viability, T/C (second compound 3.16 µM, first compound 30 µM) was 8.1% and the viability, T/C [9] was 24.5%. It also gave a viability, T/C [10] of 23.7%, a viability, T/C [11] of 21.8% and a viability, T/C [12] of 20%. It also gave a viability, T/C (second compound 10 µM, first compound 9.49 µM) of 20.2%, a viability, T/C (second compound 10 µM, first compound 30 µM) of 5.57% and a viability, T/C [13] of 24.9%. The viability, T/C [14] was 26.2%, the viability, T/C [15] was 21.8% and the viability, T/C [16] was 20.8%. It also gave a viability, T/C (second compound 31.6 µM, first compound 9.49 µM) of 20.5%, a viability, T/C (second compound 31.6 µM, first compound 30 µM) of 3.19% and a viability, T/C [17] of 21.8%. It also gave a viability, T/C [18] of 23.7%, a viability, T/C [19] of 23% and a viability, T/C [20] of 21.4%. The viability, T/C (second compound 100 µM, first compound 9.49 µM) was 2.71% and the viability, T/C (second compound 100 µM, first compound 30 µM) was 2.88%.
`CNCc1ccc(-c2cc(-c3nc(-c4ccc(S(=O)(=O)C(C)C)cc4)cnc3N)on2)cc1` + Cn1nnc2c(C(N)=O)ncn2c1=O was tested, and the IC50 (second compound 1 µM) was 57.2 nM, the IC50 (second compound 3.16 µM) was less than 9.49 nM and the IC50 (second compound 10 µM) was less than 9.49 nM. For the same compound, the IC50 (second compound 31.6 µM) was less than 9.49 nM, the IC50 (second compound 100 µM) was less than 9.49 nM and the viability, T/C (second compound 1 µM, first compound 0.00949 µM) was 87.1%. It also gave a viability, T/C (second compound 1 µM, first compound 0.03 µM) of 89.3%, a viability, T/C [1] of 20% and a viability, T/C [2] of 9.42%. For the same compound, the viability, T/C [3] was 1.93%, the viability, T/C [4] was 0.47% and the viability, T/C (second compound 3.16 µM, first compound 0.00949 µM) was 11.2%. It also gave a viability, T/C (second compound 3.16 µM, first compound 0.03 µM) of 23.2%, a viability, T/C [5] of 21.4% and a viability, T/C [6] of 2.21%. The viability, T/C [7] was 1.04%, the viability, T/C [8] was 0.58% and the viability, T/C (second compound 10 µM, first compound 0.00949 µM) was 8.64%. It also gave a viability, T/C (second compound 10 µM, first compound 0.03 µM) of 4.75%, a viability, T/C [9] of 3.76% and a viability, T/C [10] of 1.59%. For the same compound, the viability, T/C [11] was 0.8%, the viability, T/C [12] was 16.5% and the viability, T/C (second compound 31.6 µM, first compound 0.00949 µM) was 10.5%. For the same compound, the viability, T/C (second compound 31.6 µM, first compound 0.03 µM) was 14.6%, the viability, T/C [13] was 19.2% and the viability, T/C [14] was 1.44%. For the same compound, the viability, T/C [15] was 1.18%, the viability, T/C [16] was 18.5% and the outcome (second compound 100 µM, first compound 0.00949 µM) was “inactive”. For the same compound, the viability, T/C (second compound 100 µM, first compound 0.03 µM) was 24.1%, the viability, T/C [17] was 13.9% and the viability, T/C [18] was 1.69%. For the same compound, the viability, T/C [19] was 19.3% and the viability, T/C [20] was 0.46%.
